“Also recorded” adds a separate entry of the source. Where two headings read alike, the source gives them in different places.
Columns and labels:
[1] = tested on: putative glutamatergic LHb neurons; experiment: Slice optogenetic stimulation of LHb GAD2 neurons recording; type: cell-based, mouse
[2] = tested on: aggressive (AGG) male CD-1 mice; type: in vivo, mouse
Protocol: Aggression screening was performed as previously described by utilizing the resident intruder (RI) test (Golden et al., 2016b). After a minimum of one week of habituation to home cages, experimental mice were exposed to a novel C57BL/6J intruder for 3 min daily over 3 consecutive days. Each intruder presentation was performed in the home cage of the experimental mouse between 12-3 PM daily under white light conditions. During RI sessions the cage top was removed to allow for unobstructed viewing and video recording of sessions. The duration and number of screening sessions were selected to prevent induction of stress- and anxiety-related behaviors in experimental mice (Golden et al., 2016b). All RI sessions were video recorded with a digital color video camera. Two blind observers recorded (1) the latency to initial aggression and (2) the total duration of aggression. The initiation of aggression was defined by the first clear physical antagonistic interaction initiated by the resident mouse (usually a bite), not including grooming or pursuit behavior. Aggression was considered completed when the resident mouse had reoriented away from the intruder following the initiation of attack. This definition allows for slight breaks (less than 5 s) in continuous physical interaction within an aggressive bout, assuming the resident mouse has remained oriented towards the intruder throughout.
(§1) Vehicle comparison for these drugs consisted of 75% DMSO in sterile water alone. SR-9659 was dissolved in 20% DMSO in sterile water. Vehicle comparison for this drug consisted of 20% DMSO in water alone. All drugs were administered intraperitoneally (I.P.) 30 minutes before behavioral testing. All injection volumes were limited to 100 μl.
First, mice were screened for three consecutive days in the RI test. Only AGGs were selected for subsequent pharmacology experiments, as it was hypothesized that treatment with orexin antagonists would reduce aggression. […] 24 hours following the last RI test, mice were treated again with either drug or vehicle and anxiety and locomotion were assessed using the open field test.

[3] = cited from earlier work; for abuse potential: human, in vivo
male CD-1 mice [4] = experiment: Social recognition test; type: in vivo, mouse; conditions: 30 mg/kg EMPA or 20 mg/kg seltorexant IP; one-way ANOVA
Protocol: as §1, with “(IP)” for “(I.P.)”
Mice were presented with two conspecific mice in a first (training) session, and then one of the two conspecific mice was replaced with an unfamiliar mouse in a second (test) session. The time spent by the test mouse investigating each conspecific mouse provided and index of social memory. This was calculated by subtracting the time spent with the novel mouse from the time spent with the familiar mouse.

male CD-1 mice [5] = experiment: Object placement test (spatial memory); type: in vivo, mouse; conditions: 30 mg/kg EMPA or 20 mg/kg seltorexant IP; one-way ANOVA
Protocol: as §1, with “(IP)” for “(I.P.)”
Mice were presented with two of the same object in a first (training) session, and then one of the two objects was moved to a different location in the arena during a second (test) session. The time spent investigating each object provided an index of spatial memory. This was calculated by subtracting the time spent with the object in the familiar location from the time spent with the object in the novel location.

male CD-1 mice [6] = experiment: Object recognition test; type: in vivo, mouse; conditions: 30 mg/kg EMPA or 20 mg/kg seltorexant IP; one-way ANOVA
Protocol: as §1, with “(IP)” for “(I.P.)”
Mice were presented with two different objects in a first (training) session, and then one of the two objects was replaced with a new object during a second (test) session. The time spent investigating each object provided an index of object recognition memory. This was calculated by subtracting the time spent with the familiar object from the time spent with the novel object.

OX2R = biological target: T1, OX2R (Homo sapiens, UniProt O43614); conditions: cited from earlier work
T1 sequence (O43614 1-444): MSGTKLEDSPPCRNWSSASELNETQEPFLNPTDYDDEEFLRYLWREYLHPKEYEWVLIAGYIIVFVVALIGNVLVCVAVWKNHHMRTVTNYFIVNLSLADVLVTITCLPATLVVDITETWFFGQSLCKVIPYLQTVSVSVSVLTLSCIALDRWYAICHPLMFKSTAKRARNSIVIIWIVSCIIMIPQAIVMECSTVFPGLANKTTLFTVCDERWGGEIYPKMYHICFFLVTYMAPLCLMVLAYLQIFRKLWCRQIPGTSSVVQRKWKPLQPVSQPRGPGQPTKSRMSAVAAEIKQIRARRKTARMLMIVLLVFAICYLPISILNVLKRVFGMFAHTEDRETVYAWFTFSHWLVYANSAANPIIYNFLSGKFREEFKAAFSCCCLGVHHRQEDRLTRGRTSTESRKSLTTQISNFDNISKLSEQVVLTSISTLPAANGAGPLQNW

OX1R = biological target: T2, OX1R (Homo sapiens, UniProt O43613); conditions: less potent; cited from earlier work
T2 sequence (O43613 1-425): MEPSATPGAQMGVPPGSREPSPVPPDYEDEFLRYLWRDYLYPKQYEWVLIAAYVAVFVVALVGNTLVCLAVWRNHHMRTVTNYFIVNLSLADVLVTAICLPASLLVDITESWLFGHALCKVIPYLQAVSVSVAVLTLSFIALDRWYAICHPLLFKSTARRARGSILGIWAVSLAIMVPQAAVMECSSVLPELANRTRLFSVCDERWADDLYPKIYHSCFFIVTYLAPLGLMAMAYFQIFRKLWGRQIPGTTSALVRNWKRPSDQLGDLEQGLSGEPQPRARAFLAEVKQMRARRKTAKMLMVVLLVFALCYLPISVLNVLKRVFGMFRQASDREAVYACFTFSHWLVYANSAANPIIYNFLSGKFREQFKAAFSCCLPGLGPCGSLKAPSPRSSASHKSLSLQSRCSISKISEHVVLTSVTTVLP

[7] = tested on: aggressive (AGG) CD-1 mice; experiment: Resident intruder (RI) test, acute systemic EMPA (Example 1); type: in vivo, mouse
Protocol: Aggression screening was performed as previously described by utilizing the resident intruder (RI) test (6). After a minimum of one week of habituation to home cages, experimental mice were exposed to a novel C57BL/6J intruder for 3 min daily over 3 consecutive days. Each intruder presentation was performed in the home cage of the experimental mouse between 12-3 PM daily under white light conditions. During RI sessions the cage top was removed to allow for unobstructed viewing and video recording of sessions. The duration and number of screening sessions were selected to prevent induction of stress- and anxiety-related behaviors in experimental CD-1 or F1 hybrid mice (6). All RI sessions were video recorded with a digital color video camera. Two blind observers recorded (1) the latency to initial aggression and (2) the total duration of aggression. The initiation of aggression was defined by the first clear physical antagonistic interaction initiated by the resident mouse (usually a bite), not including grooming or pursuit behavior. Aggression was considered completed when the resident mouse had reoriented away from the intruder following the initiation of attack. This definition allows for slight breaks (less than 5 s) in continuous physical interaction within an aggressive bout, assuming the resident mouse has remained oriented towards the intruder throughout. […]

[8] = tested on: aggressive (AGG) CD-1 mice; experiment: Aggression conditioned place preference (CPP), systemic EMPA (Example 1); type: in vivo, mouse; conditions: EMPA 30 mg/kg I.P., vs vehicle, between-subjects
Protocol: The aggression CPP protocol was carried out according to Golden et al. (6). Briefly, this task consisted of three phases: pre-test, acquisition (conditioning), and test. Mice were acclimated to the testing facility for 1 h before all testing. All phases were conducted under red light and sound-attenuated conditions. The CPP apparatus (Med Associates) consisted of two unique conditioning chambers with a neutral middle zone that allowed for unbiased entry into either conditioning chamber at the initiation of each trial. During the pre-test phase, mice were placed into the middle chamber of the conditioning apparatus and allowed to freely explore the apparatus for 20 min. There were no group differences in bias for either chamber, and conditioning groups were balanced in an unbiased fashion to account for pre-test preference. The acquisition phase consisted of three consecutive days with two conditioning trials each day for a total of 6 acquisition trials. Morning trials (between 8-10 AM) and afternoon trials (between 3-5 PM) consisted of experimental mice confined to one chamber for 10 min while in the presence or absence of a novel C57BL/6J intruder mouse. All groups were counterbalanced for the conditioning chamber. […] Total locomotor activity was also recorded to ensure equal exploratory behavior between groups. […]

[9] = three days of RI, daily I.P. 30 min before test, EMPA 30 mg/kg, seltorexant 20 mg/kg, suvorexant 20 mg/kg

Molecule: picrotoxin
- optically elicited monosynaptic inhibitory currents in putative glutamatergic LHb neurons [1]: completely blocked

Molecule: Cc1ccc(-n2nccn2)c(C(=O)N2CCN(c3nc4cc(Cl)ccc4o3)CC[C@H]2C)c1 [suvorexant]
- reduction / attenuation of aggressive behavior ([2]; RI test, doses tested): some attenuation of aggression
- number of mice that attacked, drug vs vehicle ([2]; any day of RI, suvorexant 20 mg/kg I.P., SR-9659 I.P.): no differences
- latency to attack [2, 9]: only altered attack latency and duration on day 3
- total duration of attack [2, 9]: only altered attack latency and duration on day 3
- abuse potential [3]: low abuse potential
- tolerability in patient populations ([3]; variety of patient populations): well tolerated

Molecule: Cc1cc(C)nc(N2CC3CN(C(=O)c4c(F)cccc4-n4nccn4)CC3C2)n1 (stereo not shown) [seltorexant]
- time spent with each mouse compared to vehicle treatment (social recognition, FIG. 18A) (male CD-1 mice [4]): did not alter
- time spent with each object compared to vehicle treatment (spatial memory, object placement, FIG. 18B) (male CD-1 mice [5]): did not alter
- effects of OxR2 antagonism on aggression, EMPA versus seltorexant ([2]; mouse, in vivo): virtually indistinguishable
- latency to attack ([2]; mouse, in vivo): increased
- total duration of attack ([2]; mouse, in vivo): reduced
- time spent with each object compared to vehicle treatment (object recognition memory, FIG. 18C) (male CD-1 mice [6]): did not alter
- abuse potential [3]: low abuse potential

Molecule: orexin-B
- potency towards OX2R relative to orexin-A (OX2R): equipotent
- potency in activating OX1R relative to orexin-A (OX1R): 10 fold

Molecule: CCN(Cc1cccnc1)C(=O)CN(c1ccc(OC)nc1)S(=O)(=O)c1ccccc1C [EMPA, N-ethyl-2-[(6-methoxy-pyridin-3-yl)-(toluene-2-sulphonyl)-amino]-N-pyridin-3-ylmethyl-acetamide]
- time spent with each mouse compared to vehicle treatment (social recognition, FIG. 18A) (male CD-1 mice [4]): did not alter
- time spent with each object compared to vehicle treatment (spatial memory, object placement, FIG. 18B) (male CD-1 mice [5]): did not alter
- effects of OxR2 antagonism on aggression, EMPA versus seltorexant ([2]; over the three days of RI): virtually indistinguishable
- latency to attack [2, 9]: increased
- total duration of attack [2, 9]: reduced
- time spent with each object compared to vehicle treatment (object recognition memory, FIG. 18C) (male CD-1 mice [6]): did not alter
- attack duration in RI test ([7]; EMPA 30 mg/kg I.P. 25 min before test, vs vehicle, within-subjects): reduced
- aggression (in RI) ([7]; systemic EMPA, 30 mg/kg, acute): reduces aggression; also recorded: reduced
- aggression CPP [8]: reduced

Reference: patent publication US20210169883A1, “METHOD OF TREATING AGGRESSION WITH OREXIN RECEPTOR ANTAGONISTS” (Icahn School of Medicine at Mount Sinai, priority 2018, published 2021)
